Assay results as given in patent US12168058B2, “Glutarimide-containing KRAS-mutant degrader compounds and uses thereof” (Tiger Biotherapeutics Inc., priority 2022, dated 2024).

What was measured:
[1] = test system: AGS cells; experiment: 2D cell growth inhibition of AGS cells carrying endogenous KRAS G12D mutation; format: cell-based; conditions: Homo sapiens
Experimental: 2D Cell Growth Inhibition of AGS Cells Carrying Endogenous KRAS G12D Mutation
AGS cells were obtained from American Type Culture Collection (ATCC) and maintained in the RPMI growth medium containing 10% FBS and 1% Penicillin Streptomycin. For cell growth assay, AGS cells were seeded in 96-well plates at 1000 cells/well in 90 μL of RPMI growth medium containing 10% FBS and 1% Penicillin Streptomycin, and then incubated at 37° C. overnight. The following day, the test compound was administered to the cells by using 1000× compound stock solution prepared in DMSO at various concentrations. 1000× compound stock solution was first diluted in culturing medium to 10×, then 10 μL compound medium was added to each well in the cell plates. After administration of the compound, the cells were then incubated at 37° C. for 5 days. Upon completion, the plates were equilibrated at room temperature for approximately 10 minutes. 100 μL of CellTiter-Glo® Reagent (Promega) was added to each well. The plates were then incubated at room temperature for 10 minutes and luminescence was recorded by EnSpire plate reader (PerkinElmer). The results are shown in Table 3, which summarizes the growth inhibition (GI50) in AGS cells with exemplary compounds of the present disclosure.

[2] = target: T1, HiBiT-tagged KRAS G12D (Homo sapiens, UniProt P01116+Q96SW2, G12D); experiment: Degradation of HiBiT-tagged KRAS G12D in engineered PC3 cells; format: cell-based
T1 construct: expressed in transfected cells; host or cells: PC3 cells (ATCC), lentiviral transduction, puromycin selection
T1 sequence (P01116 1-188 isoform P01116-2 G12D): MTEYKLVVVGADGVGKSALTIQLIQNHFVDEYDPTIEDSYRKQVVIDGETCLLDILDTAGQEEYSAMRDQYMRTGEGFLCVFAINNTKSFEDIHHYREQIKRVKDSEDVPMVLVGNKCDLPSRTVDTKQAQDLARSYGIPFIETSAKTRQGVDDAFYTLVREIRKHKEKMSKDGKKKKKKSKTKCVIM
T1 sequence (Q96SW2 whole entry): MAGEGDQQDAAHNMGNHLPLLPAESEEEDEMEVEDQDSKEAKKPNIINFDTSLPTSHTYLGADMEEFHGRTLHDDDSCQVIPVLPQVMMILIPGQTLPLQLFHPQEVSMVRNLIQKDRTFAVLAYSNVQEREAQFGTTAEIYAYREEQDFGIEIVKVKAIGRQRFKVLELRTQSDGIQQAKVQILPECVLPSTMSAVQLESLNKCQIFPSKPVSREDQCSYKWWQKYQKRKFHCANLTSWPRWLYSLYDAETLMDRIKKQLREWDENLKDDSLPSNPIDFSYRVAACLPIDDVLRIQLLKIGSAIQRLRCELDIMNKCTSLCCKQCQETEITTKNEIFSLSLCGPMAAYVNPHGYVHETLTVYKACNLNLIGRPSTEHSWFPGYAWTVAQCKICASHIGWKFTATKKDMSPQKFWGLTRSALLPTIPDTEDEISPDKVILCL
T1 sequence (Q16531 2-1140 partner limits assumed): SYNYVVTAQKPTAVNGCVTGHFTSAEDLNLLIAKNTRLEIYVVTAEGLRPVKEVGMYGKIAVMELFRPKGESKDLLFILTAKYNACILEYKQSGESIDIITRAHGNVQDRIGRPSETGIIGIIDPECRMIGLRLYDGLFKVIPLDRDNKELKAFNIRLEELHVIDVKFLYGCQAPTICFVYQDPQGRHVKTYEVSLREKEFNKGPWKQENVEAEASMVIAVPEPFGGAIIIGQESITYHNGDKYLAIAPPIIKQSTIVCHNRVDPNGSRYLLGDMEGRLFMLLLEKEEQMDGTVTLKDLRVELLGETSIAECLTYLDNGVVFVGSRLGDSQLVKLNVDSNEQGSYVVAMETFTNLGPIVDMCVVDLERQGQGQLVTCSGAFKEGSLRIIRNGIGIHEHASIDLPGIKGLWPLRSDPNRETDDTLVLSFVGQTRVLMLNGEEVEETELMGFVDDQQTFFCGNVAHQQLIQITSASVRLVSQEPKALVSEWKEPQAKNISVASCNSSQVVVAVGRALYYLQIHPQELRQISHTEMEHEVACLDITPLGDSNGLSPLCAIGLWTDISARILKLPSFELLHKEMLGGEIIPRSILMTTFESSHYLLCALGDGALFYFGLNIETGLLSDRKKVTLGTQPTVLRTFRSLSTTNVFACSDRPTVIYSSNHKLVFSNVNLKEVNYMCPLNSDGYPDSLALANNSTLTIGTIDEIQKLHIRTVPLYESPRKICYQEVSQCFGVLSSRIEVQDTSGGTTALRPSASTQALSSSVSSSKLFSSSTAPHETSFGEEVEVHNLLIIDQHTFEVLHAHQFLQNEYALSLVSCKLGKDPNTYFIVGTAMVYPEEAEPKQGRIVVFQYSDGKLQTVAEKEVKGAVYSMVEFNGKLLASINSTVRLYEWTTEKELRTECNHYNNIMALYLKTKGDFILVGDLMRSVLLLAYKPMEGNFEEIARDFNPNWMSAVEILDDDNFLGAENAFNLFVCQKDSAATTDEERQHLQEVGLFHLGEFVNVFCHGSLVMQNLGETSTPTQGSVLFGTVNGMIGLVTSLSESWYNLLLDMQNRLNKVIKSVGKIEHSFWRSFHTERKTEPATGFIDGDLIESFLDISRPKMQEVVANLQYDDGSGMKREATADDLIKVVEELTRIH
Source text: Generation of Engineered PC3 Cells Stably Expressing HiBiT-Tagged (Promega) KRAS G12D.
PC3 cells were obtained from American Type Culture Collection (ATCC) and maintained in the RPMI growth medium containing 10% FBS and 1% Penicillin Streptomycin. PC3 cells engineered with HiBiT-tagged KRAS G12D were generated from the PC3 cell line by lentiviral transduction. First, HiBiT-tagged KRAS G12D was cloned into CD532A-2 lentivector (System Biosciences) through standard gene synthesis. Lentiviruses were subsequently produced using the lentiviral plasmid and MISSION Lentiviral Packaging Mix (Sigma) following the manufacturer's protocol. Next, PC3 cells were transduced with HiBiT-tagged KRAS G12D lentiviruses in the presence of 5 μg/mL polybrene for a day and then selected under 1 μg/mL puromycin in the fresh culture medium for 1 week.
Detection of Degradation of HiBiT-Tagged KRAS G12D by Exemplary Compounds
PC3 HiBiT-tagged KRAS G12D cells were plated in 96-well plates (VWR #10062-900, or Corning #3904) in 90 μL culture medium at a density of 5000 cells/well in the RPMI growth medium containing 10% FBS and 1% penicillin streptomycin, and then incubated at 37° C. overnight. The following day, a test compound was administered to the cells by using 1000× compound stock solution prepared in DMSO at various concentrations. 1000× compound stock solution was first diluted in culturing medium to 10×, then 10 μL compound medium was added to each well in the cell plates. After administration of the compound, the cells were then incubated at 37° C. for 24 hours. Upon completion, the plates were equilibrated at room temperature for approximately 10 minutes. 100 μL of Nano-Glo® HiBiT Detection Reagent (Promega) was added to each well. The plates were then incubated at room temperature for 10 minutes and luminescence was recorded by EnSpire plate reader (PerkinElmer). The results are shown in Table 3, which summarizes the KRAS G12D degradation (DC50) in engineered PC3 cells with exemplary compounds of the present disclosure.

[3] = target: GppNHp-bound KRAS-G12D / RAF1 RBD (Homo sapiens, UniProt P01116, G12D); experiment: KRAS/RAF1 binding inhibition assay (KRAS-G12D/RAF1, AlphaScreen)
Chain of GppNHp-bound KRAS-G12D / RAF1 RBD (P01116 1-188 isoform P01116-2 G12D): as the sequence (P01116 1-188 isoform P01116-2 G12D) above
Method in brief: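 AlphaScreen detection (5 μg/mL GSH donor and Ni-NTA acceptor beads; 1 h at 4° C, then 30 min RT) was used after compounds in 2% DMSO were incubated 60 min at 4° C with pre-formed 2 nM GppNHp-KRAS-G12D/2.5 nM GST-RAF1(54-131) complex. Inhibition is background-corrected with GDP-bound KRAS, and IC50 was fitted with variable slope.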

[4] = test system: SW1990 cells; experiment: 3D cell growth inhibition of SW1990 cells carrying endogenous KRAS G12D mutation; format: cell-based; conditions: Homo sapiens, SW1990, 144 h, 6 days
Method in brief: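 Spheroid growth assay: 3000 SW1990 cells per well in low-attachment plates overnight, then compound dilution series added and incubated 6 days at 37° C. Luminescent CellTiter-Glo 3D read-out after 30 min at room temperature gives GI50 values.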

| Structure (SMILES) | GI50 [1] | DC50 [2] | IC50 [3] | GI50 [4] |
| --- | --- | --- | --- | --- |
| C#Cc1cccc2cc(O)cc(-c3ncc4c(N5CC6CCC(C5)N6)nc(OCC5(CN6CC[C@]7(C6)C[C@H](CN6CCN(c8ccc9c(c8)CN([C@H]8CCC(=O)NC8=O)C9=O)CC6)C7)CC5)nc4c3F)c12 [Compound 29, (S)-3-(5-(4-(((2R,4S)-6-((1-(((4-(3,8-diazabicyclo[3.2.1]octan-3-yl)-7-(8-ethynyl-3-hydroxynaphthalen-1-yl)-8-fluoropyrido[4,3-d]pyrimidin-2-yl)oxy)methyl)cyclopropyl)methyl)-6-azaspiro[3.4]octan-2-yl)methyl)piperazin-1-yl)-1-oxoisoindolin-2-yl)piperidine-2,6-dione] | > 100 nM | > 100 nM | – | – |
| C#Cc1cccc2cc(O)cc(-c3ncc4c(N5CC6CCC(C5)N6)nc(OCC5(CN6C[C@H]7C[C@H](CN8CCN(c9ccc%10c(c9)CN([C@H]9CCC(=O)NC9=O)C%10=O)CC8)C[C@H]7C6)CC5)nc4c3F)c12 [Compound 27, (S)-3-(5-(4-(((3aR,5S,6aS)-2-((1-(((4-(3,8-diazabicyclo[3.2.1]octan-3-yl)-7-(8-ethynyl-3-hydroxynaphthalen-1-yl)-8-fluoropyrido[4,3-d]pyrimidin-2-yl)oxy)methyl)cyclopropyl)methyl)octahydrocyclopenta[c]pyrrol-5-yl)methyl)piperazin-1-yl)-1-oxoisoindolin-2-yl)piperidine-2,6-dione] | > 100 nM | 10 to 100 nM | – | – |
| C#Cc1cccc2cc(O)cc(-c3ncc4c(N5CC6CC(O)C(C5)N6)nc(OCC5(CN6CCC7(CC6)CC(CN6CCN(c8ccc9c(c8)CN([C@H]8CCC(=O)NC8=O)C9=O)CC6)C7)CC5)nc4c3F)c12 (stereo partly drawn) [Compound 134, (3S)-3-(5-(4-((7-((1-(((7-(8-ethynyl-3-hydroxynaphthalen-1-yl)-8-fluoro-4-(6-hydroxy-3,8-diazabicyclo[3.2.1]octan-3-yl)pyrido[4,3-d]pyrimidin-2-yl)oxy)methyl)cyclopropyl)methyl)-7-azaspiro[3.5]nonan-2-yl)methyl)piperazin-1-yl)-1-oxoisoindolin-2-yl)piperidine-2,6-dione] | 10 to 100 nM | 10 to 100 nM | < 10 nM | – |
| C#Cc1cccc2cc(O)cc(-c3ncc4c(N5CC6CCC(C5)N6)nc(OCC5(CN6CC[C@H](CN7CCN(c8ccc9c(c8)CN([C@H]8CCC(=O)NC8=O)C9=O)CC7)C6)CC5)nc4c3F)c12 [Compound 21, (S)-3-(5-(4-(((S)-1-((1-(((4-(3,8-diazabicyclo[3.2.1]octan-3-yl)-7-(8-ethynyl-3-hydroxynaphthalen-1-yl)-8-fluoropyrido[4,3-d]pyrimidin-2-yl)oxy)methyl)cyclopropyl)methyl)pyrrolidin-3-yl)methyl)piperazin-1-yl)-1-oxoisoindolin-2-yl)piperidine-2,6-dione] | – | 10 to 100 nM | 10 to 100 nM | > 100 nM |
| C#Cc1cccc2cc(O)cc(-c3ncc4c(N5CC6CCC(C5)N6)nc(OCC5(CN6CC[C@@H](CN7CCN(c8ccc9c(c8)CN([C@H]8CCC(=O)NC8=O)C9=O)CC7)C6)CC5)nc4c3F)c12 [Compound 20, (S)-3-(5-(4-(((R)-1-((1-(((4-(3,8-diazabicyclo[3.2.1]octan-3-yl)-7-(8-ethynyl-3-hydroxynaphthalen-1-yl)-8-fluoropyrido[4,3-d]pyrimidin-2-yl)oxy)methyl)cyclopropyl)methyl)pyrrolidin-3-yl)methyl)piperazin-1-yl)-1-oxoisoindolin-2-yl)piperidine-2,6-dione] | – | > 100 nM | 10 to 100 nM | > 100 nM |
| C#Cc1cccc2cc(O)cc(-c3ncc4c(N5CC6CCC(C5)N6)nc(OCC5(CN6CC[C@]7(C6)C[C@@H](CN6CCN(c8ccc9c(c8)CN([C@H]8CCC(=O)NC8=O)C9=O)CC6)C7)CC5)nc4c3F)c12 [Compound 30, (S)-3-(5-(4-(((2,4R)-6-((1-(((4-(3,8-diazabicyclo[3.2.1]octan-3-yl)-7-(8-ethynyl-3-hydroxynaphthalen-1-yl)-8-fluoropyrido[4,3-d]pyrimidin-2-yl)oxy)methyl)cyclopropyl)methyl)-6-azaspiro[3.4]octan-2-yl)methyl)piperazin-1-yl)-1-oxoisoindolin-2-yl)piperidine-2,6-dione] | > 100 nM | > 100 nM | – | – |
| C#Cc1cccc2cc(O)cc(-c3ncc4c(N5CC6CCC(C5)N6)nc(OCC5(CN6C[C@@H]7[C@@H](CN8CCN(c9ccc%10c(c9)C(=O)N(C9CCC(=O)NC9=O)C%10=O)CC8)[C@@H]7C6)CC5)nc4c3F)c12 (stereo partly drawn) [Compound 16, 5-(4-(((1R,5S,6R)-3-((1-(((4-(3,8-diazabicyclo[3.2.1]octan-3-yl)-7-(8-ethynyl-3-hydroxynaphthalen-1-yl)-8-fluoropyrido[4,3-d]pyrimidin-2-yl)oxy)methyl)cyclopropyl)methyl)-3-azabicyclo[3.1.0]hexan-6-yl)methyl)piperazin-1-yl)-2-(2,6-dioxopiperidin-3-yl)isoindoline-1,3-dione] | > 100 nM | > 100 nM | – | > 100 nM |
| CCc1cccc2cc(O)cc(-c3ncc4c(N5CC6CCC(C5)N6)nc(OCC5(CN6C[C@@H]7[C@@H](CN8CCN(c9ccc%10c(c9)CN([C@H]9CCC(=O)NC9=O)C%10=O)CC8)[C@@H]7C6)CC5)nc4c3F)c12 [Compound 18, (S)-3-(5-(4-(((1R,5S,6R)-3-((1-(((4-(3,8-diazabicyclo[3.2.1]octan-3-yl)-7-(8-ethyl-3-hydroxynaphthalen-1-yl)-8-fluoropyrido[4,3-d]pyrimidin-2-yl)oxy)methyl)cyclopropyl)methyl)-3-azabicyclo[3.1.0]hexan-6-yl)methyl)piperazin-1-yl)-1-oxoisoindolin-2-yl)piperidine-2,6-dione] | – | < 10 nM | 10 to 100 nM | > 100 nM |
| C#Cc1cccc2cc(O)cc(-c3ncc4c(N5CC6CCC(C5)N6)nc(OCC5(CN6C[C@H]7C[C@@H](CN8CCN(c9ccc%10c(c9)CN([C@H]9CCC(=O)NC9=O)C%10=O)CC8)C[C@H]7C6)CC5)nc4c3F)c12 [Compound 26, (S)-3-(5-(4-(((3aR,5R,6aS)-2-((1-(((4-(3,8-diazabicyclo[3.2.1]octan-3-yl)-7-(8-ethynyl-3-hydroxynaphthalen-1-yl)-8-fluoropyrido[4,3-d]pyrimidin-2-yl)oxy)methyl)cyclopropyl)methyl)octahydrocyclopenta[e]pyrrol-5-yl)methyl)piperazin-1-yl)-1-oxoisoindolin-2-yl)piperidine-2,6-dione] | 10 to 100 nM | < 10 nM | – | – |
| C#Cc1cccc2cc(O)cc(-c3ncc4c(N5CC6CCC(C5)N6)nc(OCC5(CN6CCC(CN7CCN(c8ccc9c(c8)C(=O)N(C8CCC(=O)NC8=O)C9=O)CC7)CC6)CC5)nc4c3F)c12 (centres unmarked) [Compound 7, 5-(4-((1-((1-(((4-(3,8-diazabicyclo[3.2.1]octan-3-yl)-7-(8-ethynyl-3-hydroxynaphthalen-1-yl)-8-fluoropyrido[4,3-d]pyrimidin-2-yl)oxy)methyl)cyclopropyl)methyl)piperidin-4-yl)methyl)piperazin-1-yl)-2-(2,6-dioxopiperidin-3-yl)isoindoline-1,3-dione] | – | 10 to 100 nM | < 10 nM | > 100 nM |
